Data as given in patent US20250262279A1, “DOSE REGIMEN FOR LONG-ACTING GLP1/GLUCAGON RECEPTOR AGONISTS” (Boehringer Ingelheim International GmbH, priority 2021, published 2025).
Read-outs that look alike come from different tables or passages of the source.

Assays:
[1] = Example 1: plasma pharmacokinetics; assay type: in vivo; settings: human, sc; for Cmax: read-out: Cmax (gMean)
[2] = first-in-man Phase I single-rising-dose study, adverse events; assay type: in vivo, human
Description: Compound I was recently studied in a first-in-man Phase I single-rising-dose study. In this study, a dose of 0.3 mg led to ‘mild loss of appetite’ in 33% of healthy subjects. This specific AE increased to 50% in the 0.5 mg dose group. Dose escalation to 1.2 mg was associated with 83% of the subjects experiencing moderate to severe nausea for 1 to 6 days and mild to severe vomiting.

[3] = plasma half-life in humans; assay type: in vivo; settings: human, estimated
[4] = Example 3: safety (AEs, laboratory, ECG, vital signs, NASH scores); assay type: in vivo, human
Description: • Semaglutide • Dose: 0.25, 0.25, 0.25, 0.25, 0.5, 0.5, 0.5, 0.5, 1.0 mg (weeks 9−16) once weekly • Mode of administration: Solution for injection
Safety endpoints included Columbia-Suicide Severity Rating Scale (C-SSRS) and various electrocardiograms (ECG) assessments. Safety was assessed based on adverse events (AEs), adverse event of special interest (AESIs), clinical laboratory assessments, vital signs, and physical examination. AESIs were pre-specified in the protocol as pancreatitis and hepatic injury.
Analyses of safety were descriptive.

Compound: CC[C@H](C)[C@H](NC(=O)[C@H](Cc1ccccc1)NC(=O)[C@H](CC(=O)O)NC(=O)[C@H](CCCCN)NC(=O)[C@H](C)NC(=O)[C@H](C)NC(=O)[C@H](CCCNC(=N)N)NC(=O)[C@H](CCC(=O)O)NC(=O)[C@H](CC(=O)O)NC(=O)[C@H](CC(C)C)NC(=O)[C@H](Cc1ccc(O)cc1)NC(=O)[C@H](CCCCN)NC(=O)[C@H](CO)NC(=O)[C@H](Cc1ccc(O)cc1)NC(=O)[C@H](CC(=O)O)NC(=O)[C@H](CO)NC(=O)[C@@H](NC(=O)[C@H](Cc1ccccc1)NC(=O)[C@@H](NC(=O)CNC(=O)[C@H](CCC(N)=O)NC(=O)C1(NC(=O)[C@@H](N)Cc2c[nH]cn2)CCC1)[C@@H](C)O)[C@@H](C)O)C(=O)N[C@@H](CCCCNC(=O)CNC(=O)CNC(=O)[C@H](CO)NC(=O)CNC(=O)[C@H](CO)NC(=O)CNC(=O)CC[C@H](NC(=O)CCCCCCCCCCCCCCCCC(=O)O)C(=O)O)C(=O)N[C@@H](Cc1c[nH]c2ccccc12)C(=O)N[C@@H](CC(C)C)C(=O)N[C@@H](CCC(=O)O)C(=O)N[C@@H](CO)C(=O)N[C@@H](C)C(N)=O [Compound I]
- Cmax ([1]; 1.8 mg, Ex.1 twice weekly scheme, wk 11, 1.8 mg sc): 93.6 nM
- AUC(0-t) ([1]; 1.8 mg, Ex.1 weekly scheme 1, wk 6, 1.8 mg sc, read-out: AUC0-168 (gMean)): 5.53 µM·h
- Cmax ([1]; 1.8 mg, Ex.1 weekly scheme 1, wk 6, 1.8 mg sc): 45.5 nM
- AUC(0-t) ([1]; 1.8 mg, Ex.1 weekly scheme 3, wk 4, 1.8 mg sc, read-out: AUC0-168 (gMean)): 5.2 µM·h
- Cmax ([1]; 1.8 mg, Ex.1 weekly scheme 3, wk 4, 1.8 mg sc): 46.5 nM
- AUC(0-t) ([1]; 1.8 mg, Ex.1 weekly scheme 4, wk 11, 1.8 mg sc, read-out: AUC0-168 (gMean)): 8.16 µM·h
- Cmax ([1]; 1.8 mg, Ex.1 weekly scheme 4, wk 11, 1.8 mg sc): 69.9 nM
- AUC(0-t) ([1]; 1.8 mg, Ex.1 weekly scheme 4, wk 19, 1.8 mg sc, read-out: AUC0-168 (gMean)): 6.66 µM·h
- Cmax ([1]; 1.8 mg, Ex.1 weekly scheme 4, wk 19, 1.8 mg sc): 60.2 nM
- AUC(0-t) ([1]; 1.8 mg, Ex.1 weekly scheme 5, wk 5, 1.8 mg sc, read-out: AUC0-168 (gMean)): 6.08 µM·h
- Cmax ([1]; 1.8 mg, Ex.1 weekly scheme 5, wk 5, 1.8 mg sc): 57.9 nM
- AUC(0-t) ([1]; 1.8 mg, Ex.1 weekly scheme 5, wk 6, 1.8 mg sc, read-out: AUC0-168 (gMean)): 6.77 µM·h
- Cmax ([1]; 1.8 mg, Ex.1 weekly scheme 5, wk 6, 1.8 mg sc): 63.3 nM
- AUC(0-t) ([1]; 2 mg, Ex.1 weekly scheme 2, wk 5, 2.0 mg sc, read-out: AUC0-168 (gMean)): 6.55 µM·h
- Cmax ([1]; 2 mg, Ex.1 weekly scheme 2, wk 5, 2.0 mg sc): 57.7 nM
- AUC(0-t) ([1]; 2.1 mg, Ex.1 twice weekly scheme, wk 13, 2.1 mg sc, read-out: AUC0-72 (gMean)): 6.7 µM·h
- Cmax ([1]; 2.1 mg, Ex.1 twice weekly scheme, wk 13, 2.1 mg sc): 108 nM
- AUC(0-t) ([1]; 2.4 mg, Ex.1 twice weekly scheme, wk 15, 2.4 mg sc, read-out: AUC0-72 (gMean)): 7.62 µM·h
- Cmax ([1]; 2.4 mg, Ex.1 twice weekly scheme, wk 15, 2.4 mg sc): 132 nM
- AUC(0-t) ([1]; 2.4 mg, Ex.1 twice weekly scheme, wk 16, 2.4 mg sc, read-out: AUC0-72 (gMean)): 8.55 µM·h
- Cmax ([1]; 2.4 mg, Ex.1 twice weekly scheme, wk 16, 2.4 mg sc): 142 nM
- AUC(0-t) ([1]; 2.4 mg, Ex.1 weekly scheme 2, wk 6, 2.4 mg sc, read-out: AUC0-168 (gMean)): 8.19 µM·h
- Cmax ([1]; 2.4 mg, Ex.1 weekly scheme 2, wk 6, 2.4 mg sc): 70.6 nM
- AUC(0-t) ([1]; 2.4 mg, Ex.1 weekly scheme 3, wk 5, 2.4 mg sc, read-out: AUC0-168 (gMean)): 7.19 µM·h
- Cmax ([1]; 2.4 mg, Ex.1 weekly scheme 3, wk 5, 2.4 mg sc): 63 nM
- AUC(0-t) ([1]; 2.4 mg, Ex.1 weekly scheme 4, wk 13, 2.4 mg sc, read-out: AUC0-168 (gMean)): 10.3 µM·h
- Cmax ([1]; 2.4 mg, Ex.1 weekly scheme 4, wk 13, 2.4 mg sc): 88.3 nM
- AUC(0-t) ([1]; 2.4 mg, Ex.1 weekly scheme 4, wk 15, 2.4 mg sc, read-out: AUC0-168 (gMean)): 10.9 µM·h
- Cmax ([1]; 2.4 mg, Ex.1 weekly scheme 4, wk 15, 2.4 mg sc): 87.1 nM
- AUC(0-t) ([1]; 2.4 mg, Ex.1 weekly scheme 4, wk 16, 2.4 mg sc, read-out: AUC0-168 (gMean)): 11.5 µM·h
- Cmax ([1]; 2.4 mg, Ex.1 weekly scheme 4, wk 16, 2.4 mg sc): 97.3 nM
- AUC(0-t) ([1]; 2.4 mg, Ex.1 weekly scheme 5, wk 7, 2.4 mg sc, read-out: AUC0-168 (gMean)): 9.08 µM·h
- Cmax ([1]; 2.4 mg, Ex.1 weekly scheme 5, wk 7, 2.4 mg sc): 77.8 nM
- AUC(0-t) ([1]; 3 mg, Ex.1 weekly scheme 3, wk 6, 3.0 mg sc, read-out: AUC0-168 (gMean)): 10.4 µM·h
- Cmax ([1]; 3 mg, Ex.1 weekly scheme 3, wk 6, 3.0 mg sc): 88.7 nM
- AUC(0-t) ([1]; 3 mg, Ex.1 weekly scheme 5, wk 9, 3.0 mg sc, read-out: AUC0-168 (gMean)): 11.3 µM·h
- Cmax ([1]; 3 mg, Ex.1 weekly scheme 5, wk 9, 3.0 mg sc): 102 nM
- AUC(0-t) ([1]; 3.6 mg, Ex.1 weekly scheme 5, wk 11, 3.6 mg sc, read-out: AUC0-168 (gMean)): 14.2 µM·h
- Cmax ([1]; 3.6 mg, Ex.1 weekly scheme 5, wk 11, 3.6 mg sc): 129 nM
- AUC(0-t) ([1]; 4.2 mg, Ex.1 weekly scheme 5, wk 13, 4.2 mg sc, read-out: AUC0-168 (gMean)): 15.9 µM·h
- Cmax ([1]; 4.2 mg, Ex.1 weekly scheme 5, wk 13, 4.2 mg sc): 134 nM
- AUC(0-t) ([1]; 4.8 mg, Ex.1 weekly scheme 5, wk 15, 4.8 mg sc, read-out: AUC0-168 (gMean)): 18.7 µM·h
- Cmax ([1]; 4.8 mg, Ex.1 weekly scheme 5, wk 15, 4.8 mg sc): 161 nM
- AUC(0-t) ([1]; 4.8 mg, Ex.1 weekly scheme 5, wk 16, 4.8 mg sc, read-out: AUC0-168 (gMean)): 19.7 µM·h
- Cmax ([1]; 4.8 mg, Ex.1 weekly scheme 5, wk 16, 4.8 mg sc): 193 nM
- healthy subjects with mild loss of appetite ([2]; single dose 0.3 mg): 33%
- healthy subjects with mild loss of appetite ([2]; single dose 0.5 mg): 50%
- subjects with moderate to severe nausea for 1 to 6 days and mild to severe vomiting ([2]; single dose 1.2 mg): 83%
- half-life [3]: ~4.58 days
- deaths ([4]; Ex.3, whole trial): no deaths
- AEs of special interest, percentage of patients ([4]; in vivo): (0.3) interest %
- cases of pancreatitis ([4]; in vivo): no cases of pancreatitis
